{"source": "paper PMC6746264", "about": "“Novel tyrosinase inhibitory peptide with free radical scavenging ability” (Journal of Enzyme Inhibition and Medicinal Chemistry, 2019)", "key": {"[1]": {"system": "human melanoma cell line (A375)", "assay": "Intracellular tyrosinase activity inhibition assay (melanin production)", "format": "cell-based", "conditions": "A375 cells, 60 h, N = 3", "experimental": "(§1) A human melanoma cell line (A375) was provided by the Stem Cell Bank, Chinese Academy of Sciences. The A375 cell line was cultured in DMEM media containing 10% fetal bovine serum and 1% penicillin/streptomycin in an incubator at 37 °C and an atmosphere containing 5% CO2[32].\nThe A375 cells were seeded at a density of 1 × 10^5 cells/well in a 6-well plate and cultured for 12 h. […] After adding 0.5 ml NaOH (1 M), the cells were disrupted by sonication, and incubated at 50 °C for 10 min."}, "[2]": {"system": "A375 cells", "assay": "MTT assay (cell viability)", "format": "cell-based, human", "conditions": "24 h, inhibitors 2.5 mM in PBS, absorbance 492 nm", "experimental": "as §1\nThe A375 cells were seeded at a density of 1 × 10^4 cells per well in a 96-well plate. They were incubated for 24 h at 37 °C under an atmosphere containing 5% CO2. Then, different tyrosinase inhibitors were added into the culture media. After incubation for 24 h, the cell viability was measured using the MTT assay, which was based on the conversion of MTT to formazan crystals by mitochondrial dehydrogenases. Briefly, the cell cultures were incubated with a 20 µl MTT solution (5 mg/mL) for 4 h at 37 °C. The culture supernatant was carefully removed from the well, and 150 µl DMSO was added followed by shaking for 10 min to dissolve the formazan crystals. Absorbance at 492 nm was measured using a microplate reader (VersaMax Microplate Reader)[35]. Cell viability of the control group in which […] was replaced by PBS was defined as 100%[36]."}, "[3]": {"system": "A375 melanoma cells", "assay": "Number of proliferated melanoma cells", "format": "cell-based, human", "experimental": "Fig. S3. The OD values at 475 nm of the solutions shown in Fig. 1A after storage for 12 months. Error\nFig. S4. Total number of proliferated melanoma cells in the presence of different tyrosinase inhibitors.\nThe concentration of each inhibitor is 2.5 mM. Error bars represent S.D. N=3. […]"}, "[4]": {"conditions": "cited from earlier work", "excerpt": "However, the adverse side effects associated with their use have led to restrictions in their applications."}, "[5]": {"target": "mushroom tyrosinase (Agaricus bisporus, UniProt C7FF04)", "sequence (C7FF04 1-392)": "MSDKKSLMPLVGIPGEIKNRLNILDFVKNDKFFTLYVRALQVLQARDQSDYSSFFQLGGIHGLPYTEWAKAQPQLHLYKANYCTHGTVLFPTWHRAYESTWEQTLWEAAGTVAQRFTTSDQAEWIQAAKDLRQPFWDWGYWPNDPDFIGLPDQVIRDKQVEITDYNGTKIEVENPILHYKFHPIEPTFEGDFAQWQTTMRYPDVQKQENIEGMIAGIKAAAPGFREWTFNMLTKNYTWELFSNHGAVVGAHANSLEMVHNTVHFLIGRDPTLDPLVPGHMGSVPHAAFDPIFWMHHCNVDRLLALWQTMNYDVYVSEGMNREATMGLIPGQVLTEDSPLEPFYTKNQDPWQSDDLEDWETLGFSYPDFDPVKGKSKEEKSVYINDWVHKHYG", "assay": "Comparison of tyrosinase inhibition rate (maximum reaction rate, IC50)", "format": "biochemical", "experimental": "Figure 2. […] (D) The plot of the percentage of enzyme activity (Vss) vs the […] concentration [I]. IC50 of the inhibitors were directly obtained from the plots.\nBefore conducting the experiment, all the solutions, 96-well plates, and tips were heated at 37 °C. Equal volumes of tyrosine solutions (final concentration of 2.5 mM) were added to the 96-well plates, mixed with different concentrations of the inhibitors mentioned above and incubated for 10 min at 37 °C. Then, equal volume of the tyrosinase solution (100 U per well) was added to the 96-well plate using a multichannel pipette, which was placed immediately in a microplate reader under shaking conditions for 30 s. Finally, the light absorbance value at 475 nm was recorded at 37 °C continuously for 2 h with intervals of 20 s. The maximum reaction rate of tyrosinase at each concentration of the inhibitor was calculated."}, "[6]": {"system": "tyrosinase", "assay": "CD spectroscopy", "format": "binding, mushroom", "conditions": "200–260 nm, 293.15 K, mixture with tyrosinase, 0.2 mg/ml", "experimental": "The CD measurements were performed at 293.15 K with a bandwidth, step interval and scanning speed of 1.0 nm, 1 nm, and 50 nm min^−1, respectively.\nFigure 4."}, "[7]": {"conditions": "1 mM, comparison among arbutin, glutathione and EF-5"}}, "note": "Entries after “also recorded” stand apart in the source; their conditions may differ. No end group written: not given here.", "data": [{"molecule": "OC[C@H]1O[C@@H](Oc2ccc(O)cc2)[C@H](O)[C@@H](O)[C@@H]1O", "note": "[arbutin]", "values": [{"measurement": "melanin inhibitory effect", "setting": "[1]; [7]", "value": "the melanin inhibitory effects of arbutin and glutathione were similar"}, {"measurement": "melanin inhibitory effect", "setting": "[1]; arbutin 5 mM compared with EF-5 0.5 mM", "value": "similar"}, {"measurement": "cell viability / toxicity", "setting": "[2]", "value": "the inhibitory effect of arbutin on the viability of melanoma cells is significant"}, {"measurement": "total concentration of cells", "setting": "[3]; A375, arbutin 5 mM group versus EF-5 0.5 mM group", "value": "much lesser than that in the EF-5 (0.5 mM) group"}, {"measurement": "inhibition of cell proliferation", "setting": "[3]; A375 melanoma cells, 2.5 mM, N=3", "value": "inhibit proliferation of the cells"}, {"measurement": "contact dermatitis / exogenous ochronosis", "setting": "[4]", "value": "contact dermatitis"}]}, {"molecule": "Oc1ccc(O)cc1", "note": "[hydroquinone]", "values": [{"measurement": "contact dermatitis / exogenous ochronosis", "setting": "[4]", "value": "exogenous ochronosis"}]}, {"molecule": "O=c1cc(CO)occ1O", "note": "[kojic acid]", "values": [{"measurement": "carcinogenicity", "setting": "[4]", "value": "has demonstrated carcinogenicity"}]}, {"molecule": "ECGYF [EF-5, ECGYF]", "values": [{"measurement": "IC50 relative to IC50 of arbutin", "setting": "[5]; EF-5 IC50 as fraction of that of arbutin", "value": "about 1/12"}, {"measurement": "cell viability / toxicity", "setting": "[2]", "value": "nontoxic to cells; also recorded: nontoxic to the melanocytes"}]}, {"molecule": "glutathione", "values": [{"measurement": "lag phase of the catalytic reaction of tyrosinase", "setting": "[5]; 475 nm, 37 °C, compared with arbutin", "value": "may significantly increase the lag phase"}, {"measurement": "change of CD spectrum of tyrosinase", "setting": "[6]", "value": "does not show such changes"}, {"measurement": "melanin inhibitory effect", "setting": "[1]; [7]", "value": "the melanin inhibitory effects of arbutin and glutathione were similar"}]}]}
